Data published in patent US20040087512A1, “In-situ formation of CLA” (priority 1998, published 2004).

Columns and labels:
[1] = test system: C57/B1/6J mice; assay: Example 6: milk fat percentage of mice fed oleic acid isomer diets (creamatocrit); format: in vivo; details: for Milk fat on day 10 versus day 6 of lactation: isomer replaces about 25% of dietary fat, four days
From the text: (§1) C57/B1/6J mice fed a control diet (10 wt % fat) were switched to one of four isomer diets at day 6 of lactation after milk collection. Approximately 25% of the dietary fat (5 caloric %) during the treatment period was replaced with one of four specific isomers of oleic acid, either cis-9; cis-11; trans-9 or trams-11, other diet components were identical. The mice consumed these diets ad libitum for four days and were milked again on day 10 of lactation. Milk and fecal fatty acid composition was analyzed as fatty acid methyl esters by GC. Specific isomers were identified by relative retention times. Milk fat percentage was determined by the creamatocrit method and differences between day 6 and day 10 fat percentages were evaluated by a paired t-test.

[2] = test system: C57/B1/6J mice; assay: Example 6: milk and fecal fatty acid composition of mice fed oleic acid isomer diets (GC of FAME); format: in vivo; details: day 10, fed the isomer diet
From the text: as §1

[3] = test system: cows; assay: Milk fat levels in cows ingesting C18 trans 11 fats; details: in vivo

SMILES: CCCCCC/C=C\CCCCCCCCCC(=O)O [cis-11]
- Milk fat on day 10 versus day 6 of lactation [1]: numerically lower
- Test isomer in milk [2]: 10 % of the fat

SMILES: CCCCCCCC/C=C\CCCCCCCC(=O)O [cis-9]
- Milk fat on day 10 versus day 6 of lactation [1]: identical fat values

SMILES: CCCCCCCC/C=C/CCCCCCCC(=O)O [trans-9]
- Milk fat on day 10 versus day 6 of lactation [1]: statistically lower
- Test isomer in milk [2]: 5.8 % of the fat

SMILES: CCCCCC/C=C/CCCCCCCCCC(=O)O [trans-11, trans vaccinic acid]
- Milk fat on day 10 versus day 6 of lactation [1]: numerically lower
- Effect of ingestion on milk fat in the lactation products of mammals ([1]; mouse, in vivo): does not reduce milk fat
- Test isomer in milk [2]: 3 % of the fat
- Effect of ingestion on milk fat levels in cows [3]: do not reduce milk fat levels
